# Laboratory results reported in patent publication US6737383B1, “Herbicidal oxadiazolidines” (priority 1999, dated 2004).
# Key:
# bedstraw = assay: Test B pre/postemergence bedstraw; assay type: in vivo, Galium aparine
# In short: (§1)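 Herbicidal effect was estimated by eye on a ten-point control scale after plants spent twelve to sixteen days in a greenhouse following soil or foliar treatment. Foliar sprays targeted plants at one to four leaves; all doses were formulated in a non-phytotoxic solvent with surfactant.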
# blackgrass = assay: Test B pre/postemergence blackgrass; assay type: in vivo, Alopecurus myosuroides
# In short: as §1
# surinam grass = assay: Test B pre/postemergence surinam grass; assay type: in vivo, Brachiaria decumbens
# In short: as §1
# cocklebur = assay: Test B pre/postemergence cocklebur; assay type: in vivo, Xanthium strumarium
# In short: as §1
# corn = assay: Test B pre/postemergence corn; assay type: in vivo, Zea mays
# In short: as §1
# crabgrass = assay: Test B pre/postemergence crabgrass; assay type: in vivo, Digitaria sanguinalis
# In short: as §1
# giant foxtail = assay: Test B pre/postemergence giant foxtail; assay type: in vivo, Setaria faberii
# In short: as §1
# morningglory = assay: Test B pre/postemergence morningglory; assay type: in vivo, Ipomoea hederacea
# In short: as §1
# pigweed = assay: Test B pre/postemergence pigweed; assay type: in vivo, Amaranthus retroflexus
# In short: as §1
# rape = assay: Test B pre/postemergence rape; assay type: in vivo, Brassica napus
# In short: as §1
# soybean = assay: Test B pre/postemergence soybean; assay type: in vivo, Glycine max
# In short: as §1
# sugar beet = assay: Test B pre/postemergence sugar beet; assay type: in vivo, Beta vulgaris
# In short: as §1
# velvetleaf = assay: Test B pre/postemergence velvetleaf; assay type: in vivo, Abutilon theophrasti
# In short: as §1
# wheat = assay: Test B pre/postemergence wheat; assay type: in vivo, Triticum aestivum
# In short: as §1
# wild oat = assay: Test B pre/postemergence wild oat; assay type: in vivo, Avena fatua
# In short: as §1
# purple nutsedge = assay: Test B pre/postemergence purple nutsedge; assay type: in vivo, Cyperus rotundus
# In short: as §1
# [1] = Postemergence, Rate 250 g/ha, scale of 0 to 10, 0 is no effect, 10 is complete control
# [2] = Preemergence, Rate 62 g/ha, scale of 0 to 10 where 0 is no effect and 10 is complete control
# [3] = Preemergence, Rate 125 g/ha, scale of 0 to 10 where 0 is no effect and 10 is complete control
# [4] = Preemergence, Rate 250 g/ha, scale 0 to 10 (0 no effect, 10 complete control)
# [5] = Preemergence, Rate 500 g/ha, scale of 0 to 10 where 0 is no effect and 10 is complete control
# [6] = Rate 500 g/ha, Postemergence, scale 0 to 10, 0 is no effect, 10 is complete control
# [7] = Postemergence, Rate 62 g/ha, scale 0 to 10, 0 is no effect, 10 is complete control
# [8] = Postemergence, Rate 125 g/ha, scale of 0 to 10 where 0 is no effect and 10 is complete control
# [9] = Preemergence, Rate 250 g/ha, scale 0 (no effect) to 10 (complete control)
# [10] = Rate 500 g/ha, Preemergence, scale 0 to 10 (0 no effect, 10 complete control)
smiles,measurement,setting,value
CC(C)N(C(=O)n1oc(=O)n(C(CCl)CCl)c1=O)c1ccc(F)cc1 [Compound 672],Bedstraw plant response rating,bedstraw; [1],4
same,Bedstraw plant response rating,bedstraw; [2],0
same,"Plant response rating, Bedstraw",bedstraw; [3],0
same,"Plant response rating, Bedstraw",bedstraw; [4],0
same,"Plant response rating, Bedstraw",bedstraw; [5],0
same,Bedstraw plant response rating,bedstraw; [6],6
same,"Plant response rating, Blackgrass",blackgrass; [7],0
same,Blackgrass plant response rating,blackgrass; [8],2
same,Blackgrass plant response rating,blackgrass; [1],6
same,Blackgrass plant response rating,blackgrass; [2],1
same,"Plant response rating, Blackgrass",blackgrass; [3],3
same,"Plant response rating, Blackgrass",blackgrass; [4],8
same,"Plant response rating, Blackgrass",blackgrass; [5],8
same,Blackgrass plant response rating,blackgrass; [6],6
same,"Plant response rating, B. signalgrass",surinam grass; [7],0
same,"Plant response rating, B. signalgrass",surinam grass; [8],3
same,B. signalgrass plant response rating,surinam grass; [1],3
same,B. signalgrass plant response rating,surinam grass; [2],2
same,"Plant response rating, B. signalgrass",surinam grass; [3],4
same,"Plant response rating, B. signalgrass",surinam grass; [4],6
same,"Plant response rating, B. signalgrass",surinam grass; [5],8
same,B. signalgrass plant response rating,surinam grass; [6],4
same,"Plant response rating, Cocklebur",cocklebur; [7],0
same,Cocklebur plant response rating,cocklebur; [8],1
same,Cocklebur plant response rating,cocklebur; [1],2
same,Cocklebur plant response rating,cocklebur; [2],0
same,"Plant response rating, Cocklebur",cocklebur; [3],0
same,"Plant response rating, Cocklebur",cocklebur; [4],0
same,Cocklebur plant response rating,cocklebur; [6],7
same,"Plant response rating, Corn",corn; [7],0
same,Corn plant response rating,corn; [8],0
same,Corn plant response rating,corn; [1],0
same,Corn plant response rating,corn; [2],0
same,"Plant response rating, Corn",corn; [3],0
same,"Plant response rating, Corn",corn; [4],0
same,"Plant response rating, Corn",corn; [5],0
same,Corn plant response rating,corn; [6],0
same,"Plant response rating, Crabgrass",crabgrass; [7],5
same,Crabgrass plant response rating,crabgrass; [8],6
same,Crabgrass plant response rating,crabgrass; [1],7
same,Crabgrass plant response rating,crabgrass; [2],8
same,"Plant response rating, Crabgrass",crabgrass; [3],10
same,"Plant response rating, Crabgrass",crabgrass; [4],10
same,"Plant response rating, Crabgrass",crabgrass; [5],10
same,Crabgrass plant response rating,crabgrass; [6],9
same,"Plant response rating, Giant foxtail",giant foxtail; [7],3
same,Giant foxtail plant response rating,giant foxtail; [8],5
same,Giant foxtail plant response rating,giant foxtail; [1],8
same,Giant foxtail plant response rating,giant foxtail; [2],9
same,"Plant response rating, Giant foxtail",giant foxtail; [3],10
same,"Plant response rating, Giant foxtail",giant foxtail; [4],10
same,"Plant response rating, Giant foxtail",giant foxtail; [5],10
same,Giant foxtail plant response rating,giant foxtail; [6],9
same,"Plant response rating, Morningglory",morningglory; [7],4
same,Morningglory plant response rating,morningglory; [8],8
same,Morningglory plant response rating,morningglory; [1],8
same,Morningglory plant response rating,morningglory; [2],0
same,"Plant response rating, Morningglory",morningglory; [3],0
same,"Plant response rating, Morningglory",morningglory; [4],0
same,"Plant response rating, Morningglory",morningglory; [5],2
same,"Plant response rating, Redroot pigweed",pigweed; [7],7
same,Redroot pigweed plant response rating,pigweed; [2],0
same,"Plant response rating, Redroot pigweed",pigweed; [3],3
same,"Plant response rating, Redroot pigweed",pigweed; [4],7
same,"Plant response rating, Redroot pigweed",pigweed; [5],8
same,Redroot pigweed plant response rating,pigweed; [6],8
same,"Plant response rating, Rape",rape; [7],0
same,Rape plant response rating,rape; [8],3
same,Rape plant response rating,rape; [2],0
same,"Plant response rating, Rape",rape; [3],2
same,"Plant response rating, Rape",rape; [4],7
same,"Plant response rating, Rape",rape; [5],8
same,Rape plant response rating,rape; [6],3
same,"Plant response rating, Soybean",soybean; [7],2
same,Soybean plant response rating,soybean; [8],2
same,Soybean plant response rating,soybean; [2],0
same,"Plant response rating, Soybean",soybean; [3],0
same,"Plant response rating, Soybean",soybean; [4],0
same,"Plant response rating, Soybean",soybean; [5],0
same,Soybean plant response rating,soybean; [6],5
same,"Plant response rating, Sugarbeets",sugar beet; [7],0
same,Sugarbeets plant response rating,sugar beet; [8],0
same,Sugarbeets plant response rating,sugar beet; [2],3
same,"Plant response rating, Sugarbeets",sugar beet; [3],4
same,"Plant response rating, Sugarbeets",sugar beet; [4],7
same,"Plant response rating, Sugarbeets",sugar beet; [5],8
same,Sugarbeets plant response rating,sugar beet; [6],3
same,"Plant response rating, Velvetleaf",velvetleaf; [7],6
same,Velvetleaf plant response rating,velvetleaf; [8],6
same,Velvetleaf plant response rating,velvetleaf; [2],0
same,"Plant response rating, Velvetleaf",velvetleaf; [3],3
same,"Plant response rating, Velvetleaf",velvetleaf; [4],3
same,"Plant response rating, Velvetleaf",velvetleaf; [5],4
same,Velvetleaf plant response rating,velvetleaf; [6],7
same,"Plant response rating, Wheat",wheat; [7],0
same,Wheat plant response rating,wheat; [8],0
same,Wheat plant response rating,wheat; [2],0
same,"Plant response rating, Wheat",wheat; [3],0
same,"Plant response rating, Wheat",wheat; [4],0
same,"Plant response rating, Wheat",wheat; [5],0
same,Wheat plant response rating,wheat; [6],0
same,"Plant response rating, Wild oats",wild oat; [7],0
same,Wild oats plant response rating,wild oat; [8],0
same,Wild oats plant response rating,wild oat; [2],0
same,"Plant response rating, Wild oats",wild oat; [3],4
same,"Plant response rating, Wild oats",wild oat; [4],5
same,"Plant response rating, Wild oats",wild oat; [5],7
same,Wild oats plant response rating,wild oat; [6],0
same,"Plant response rating, Nutsedge",purple nutsedge; [7],0
same,Nutsedge plant response rating,purple nutsedge; [8],0
same,Nutsedge plant response rating,purple nutsedge; [2],0
same,"Plant response rating, Nutsedge",purple nutsedge; [3],0
same,"Plant response rating, Nutsedge",purple nutsedge; [4],0
same,"Plant response rating, Nutsedge",purple nutsedge; [5],0
same,Nutsedge plant response rating,purple nutsedge; [6],5
CCn1ncc(Cn2c(=O)on(C(=O)N(c3ccc(F)cc3)C(C)C)c2=O)c1Cl [Compound 686],Bedstraw plant response rating,bedstraw; [2],0
same,"Plant response rating, Bedstraw",bedstraw; [3],0
same,"Plant response rating, Bedstraw",bedstraw; [4],0
same,"Plant response rating, Bedstraw",bedstraw; [5],0
same,Blackgrass plant response rating,blackgrass; [2],4
same,"Plant response rating, Blackgrass",blackgrass; [3],7
same,"Plant response rating, Blackgrass",blackgrass; [4],8
same,"Plant response rating, Blackgrass",blackgrass; [5],9
same,B. signalgrass plant response rating,surinam grass; [2],2
same,"Plant response rating, B. signalgrass",surinam grass; [3],5
same,"Plant response rating, B. signalgrass",surinam grass; [4],7
same,"Plant response rating, B. signalgrass",surinam grass; [5],9
same,Cocklebur plant response rating,cocklebur; [2],0
same,"Plant response rating, Cocklebur",cocklebur; [4],0
same,"Plant response rating, Cocklebur",cocklebur; [5],0
same,Corn plant response rating,corn; [2],0
same,"Plant response rating, Corn",corn; [3],0
same,"Plant response rating, Corn",corn; [4],0
same,Crabgrass plant response rating,crabgrass; [2],8
same,"Plant response rating, Crabgrass",crabgrass; [3],9
same,"Plant response rating, Crabgrass",crabgrass; [4],10
same,Giant foxtail plant response rating,giant foxtail; [2],9
same,"Plant response rating, Giant foxtail",giant foxtail; [3],9
same,Morningglory plant response rating,morningglory; [2],0
same,"Plant response rating, Morningglory",morningglory; [3],0
same,Redroot pigweed plant response rating,pigweed; [2],0
same,"Plant response rating, Redroot pigweed",pigweed; [3],6
same,Rape plant response rating,rape; [2],0
same,"Plant response rating, Rape",rape; [3],0
same,Soybean plant response rating,soybean; [2],0
same,"Plant response rating, Soybean",soybean; [3],0
same,Sugarbeets plant response rating,sugar beet; [2],0
same,"Plant response rating, Sugarbeets",sugar beet; [3],0
same,Velvetleaf plant response rating,velvetleaf; [2],0
same,"Plant response rating, Velvetleaf",velvetleaf; [3],0
same,Wheat plant response rating,wheat; [2],0
same,"Plant response rating, Wheat",wheat; [3],0
same,Wild oats plant response rating,wild oat; [2],0
same,"Plant response rating, Wild oats",wild oat; [3],1
same,Nutsedge plant response rating,purple nutsedge; [2],0
same,"Plant response rating, Nutsedge",purple nutsedge; [3],0
CC(C)N(C(=O)n1oc(=O)n(C(C)C2CCC2)c1=O)c1ccccc1 (stereo not drawn) [Compound 717],Bedstraw plant response rating,bedstraw; [2],0
same,Bedstraw plant response rating,bedstraw; [9],0
same,Bedstraw plant response rating,bedstraw; [10],0
same,Blackgrass plant response rating,blackgrass; [2],9
same,Blackgrass plant response rating,blackgrass; [9],10
same,Blackgrass plant response rating,blackgrass; [10],10
same,B. signalgrass plant response rating,surinam grass; [2],4
same,B. signalgrass plant response rating,surinam grass; [9],7
same,B. signalgrass plant response rating,surinam grass; [10],7
same,Cocklebur plant response rating,cocklebur; [2],0
same,Cocklebur plant response rating,cocklebur; [9],0
same,Cocklebur plant response rating,cocklebur; [10],0
same,Corn plant response rating,corn; [2],0
same,Corn plant response rating,corn; [9],3
same,Corn plant response rating,corn; [10],9
same,Crabgrass plant response rating,crabgrass; [2],10
same,Crabgrass plant response rating,crabgrass; [9],10
same,Crabgrass plant response rating,crabgrass; [10],10
same,Giant foxtail plant response rating,giant foxtail; [2],10
same,Giant foxtail plant response rating,giant foxtail; [9],10
same,Giant foxtail plant response rating,giant foxtail; [10],10
same,Morningglory plant response rating,morningglory; [2],0
same,Morningglory plant response rating,morningglory; [9],0
same,Morningglory plant response rating,morningglory; [10],0
same,Redroot pigweed plant response rating,pigweed; [2],6
same,Redroot pigweed plant response rating,pigweed; [9],8
same,Redroot pigweed plant response rating,pigweed; [10],8
same,Rape plant response rating,rape; [2],0
same,Rape plant response rating,rape; [9],0
same,Rape plant response rating,rape; [10],4
same,Soybean plant response rating,soybean; [2],0
same,Soybean plant response rating,soybean; [9],0
same,Soybean plant response rating,soybean; [10],0
same,Sugarbeets plant response rating,sugar beet; [2],0
same,Sugarbeets plant response rating,sugar beet; [9],2
same,Sugarbeets plant response rating,sugar beet; [10],3
same,Velvetleaf plant response rating,velvetleaf; [2],0
same,Velvetleaf plant response rating,velvetleaf; [9],0
same,Velvetleaf plant response rating,velvetleaf; [10],0
same,Wheat plant response rating,wheat; [2],0
same,Wheat plant response rating,wheat; [9],0
same,Wheat plant response rating,wheat; [10],0
same,Wild oats plant response rating,wild oat; [2],9
same,Wild oats plant response rating,wild oat; [9],9
same,Wild oats plant response rating,wild oat; [10],10
same,Nutsedge plant response rating,purple nutsedge; [2],0
same,Nutsedge plant response rating,purple nutsedge; [9],0
same,Nutsedge plant response rating,purple nutsedge; [10],0
